Laboratory results reported in patent publication US12590096B2, “Imidazo[2,1-f][1,2,4]triazin-4-amine as TLR8 agonists” (BeOne Medicines | GmbH, priority 2019, dated 2026).
Like-named read-outs stand apart in the source and are kept apart here.

Key:
[1] = system: PBMC (peripheral blood monocyte); assay: PBMC determination: cytokines in culture supernatant measured by HTRF; format: cell-based; details: human PBMC, 24 h
Procedure: Determination of PBMC (Peripheral Blood Monocyte) Cell Preparation, Separation and Culture
Human whole blood was collected from healthy volunteers using BD Vacutainer® Lithium Heparin Tubes. PBMCs were prepared using Ficoll separation medium (GE Healthcare) by SopMate™ (STEMCELL). The cell survival rate was over 85% as monitored by Countstar. PBMCs were cultured in RPMI 1640 (Gibco) 10% (v/v) FBS (Gibco), 1×MEM NEAA (Gibco), 1× GlutaMAX (Gibco), 1 mM sodium pyruvate (Gibco), 50 uM 2-mercaptoethanol (sigma), and 100 U/ml penicillin-streptomycin (Thermo fisher Scientific).
PBMCs were plated into 96-well plates (costar 3894) with a density of 2×10^5 cells/well. Then, TLR7/8 compound was added, and serial dilution was carried out at ten points. The final concentration in 0.1% DMSO/RPMI 1640 ranged from 1 nM to 10 μM. Then, the plates were incubated in 5% CO2 at 37° C. for 24 h.
HTRF (Homogeneous Time-Resolved Fluorescence)
After the specified time point, according to the manufacturers recommendations, the cytokines in the cell culture supernatant were measured by Human IL6 kit (cisbio) and Human TNF alpha kit (cisbio). The EC50 of each compound was determined by calculating the maximum activation percentage identified using Resiquimod or Motolimod.

[2] = biological target: T1, human TLR 8 protein in HEK-blue hTLR 8 tool cell line (Homo sapiens, UniProt Q9NR97); assay: TLR8 stimulation determined by HEK-Blue Detection (NF-κB/SEAP reporter); format: cell-based; details: HEK-Blue hTLR8 cells, 16 h incubation
T1 construct: expressed in transfected cells; host or cells: HEK293 (HEK-Blue hTLR8)
T1 sequence (Q9NR97 27-1041): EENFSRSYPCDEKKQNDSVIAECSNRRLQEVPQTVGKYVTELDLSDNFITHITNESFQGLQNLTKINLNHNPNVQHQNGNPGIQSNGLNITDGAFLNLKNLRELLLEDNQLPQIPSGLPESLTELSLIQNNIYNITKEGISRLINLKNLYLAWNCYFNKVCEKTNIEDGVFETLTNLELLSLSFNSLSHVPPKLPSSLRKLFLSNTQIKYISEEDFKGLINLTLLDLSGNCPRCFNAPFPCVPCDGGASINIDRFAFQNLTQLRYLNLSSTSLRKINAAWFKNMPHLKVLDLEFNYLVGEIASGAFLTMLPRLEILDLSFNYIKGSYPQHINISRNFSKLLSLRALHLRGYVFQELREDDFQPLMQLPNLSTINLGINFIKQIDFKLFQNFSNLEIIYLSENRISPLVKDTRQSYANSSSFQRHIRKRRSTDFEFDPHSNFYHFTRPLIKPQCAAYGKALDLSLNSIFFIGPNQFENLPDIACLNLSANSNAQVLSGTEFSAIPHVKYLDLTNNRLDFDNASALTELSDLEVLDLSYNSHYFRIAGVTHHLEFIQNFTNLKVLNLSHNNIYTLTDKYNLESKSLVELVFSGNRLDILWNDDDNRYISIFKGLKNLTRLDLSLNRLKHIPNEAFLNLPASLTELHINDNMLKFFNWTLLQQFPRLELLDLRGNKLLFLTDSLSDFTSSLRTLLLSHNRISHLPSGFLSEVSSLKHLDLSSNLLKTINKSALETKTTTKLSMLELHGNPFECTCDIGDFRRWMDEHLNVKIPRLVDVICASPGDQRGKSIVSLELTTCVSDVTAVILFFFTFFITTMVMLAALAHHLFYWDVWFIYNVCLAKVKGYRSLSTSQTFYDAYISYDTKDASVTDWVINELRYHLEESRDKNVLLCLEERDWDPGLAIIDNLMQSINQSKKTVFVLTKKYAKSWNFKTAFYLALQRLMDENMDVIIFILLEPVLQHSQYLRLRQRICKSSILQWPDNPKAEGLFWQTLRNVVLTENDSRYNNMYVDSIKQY
From the text: TLR8 Stimulation Determined by HEK-Blue Detection
This assay was designed to study the stimulation of human TLR 8 protein in HEK-blue hTLR 8 tool cell line by monitoring the activation of NF-κB. HEK-blue hTLR8 cells were obtained by co-transfection of hTLR8 gene and optimized secretory embryonic alkaline phosphatase (SEAP) reporter gene into HEK293 cells. SEAP reporter gene was put under the control of […] minimal promoter fused with five NF-κB and AP-1-binding sites. NF-κB and AP-1 were activated by stimulation with TLR 8 ligand, thus inducing the expression of SEAP. The level of SEAP can be easily determined by HEK-Blue Detection (a cell culture medium that allows real-time detection of SEAP). HEK-Blue Detection comprises all nutrients needed for cell growth and specific SEAP color substrates. The hydrolysis of substrate by SEAP produces purple/blue color which can be measured by spectrophotometer.
When growing to 50-80% confluence, HEK-Blue hTLR7/8 cells were plated into 96-well plates (costar 3599) at a density of 40,000 cells/well. Then, the compound serially diluted at 10 points with a final concentration ranging from 1 nM to 10 μm in 0.1% DMSO/HEK-Blue Detection was added. The plates were then incubated in 5% CO2 at 37° C. for 16 h. Optical density at 620-655 nm was read on BMG PHERAstar FSX instrument. The EC50 of each compound was determined by calculating the maximum activation percentage identified using Resiquimod or motolimod.
The EC50 of the tested compound of the present invention is as follows.

[3] = Human IL6 kit (HTRF), read-out: IL6 (EC50)
[4] = Human TNF alpha kit (HTRF), read-out: TNF-alpha (EC50)
[5] = relative to maximum activation by Resiquimod or motolimod, read-out: EC50 (nmol)

EC50 [2, 5] [µM]	Compound	also measured
0.026	CCC[C@H](C)Oc1nc(N)c2ncc(C[C@H]3C[C@@H](N)C3)n2n1 [Compound B30, 7-(((1s,3S)-3-aminocyclobutyl)methyl)-2-(((S)-pent-2-yl)oxy)imidazo[2,1-f][1,2,4]triazin-4-amine]	EC50 [1, 3]: 85 nM; EC50 [1, 4]: 153 nM
0.02	CCC[C@H](C)Oc1nc(N)c2ncc(CC3CCNC(C)C3)n2n1 (stereo partly drawn) [Compound B27, 7-((2-methylpiperidin-4-yl)methyl)-2-(((S)-pent-2-yl)oxy)imidazo[2,1-f][1,2,4]triazin-4-amine]	EC50 [1, 3]: 228 nM; EC50 [1, 4]: 326 nM
1.29	CCC[C@@H](C)Oc1nc(N)c2ncc(CC3CCNCC3)n2n1 [Compound B7, (R)-2-(pent-2-yloxy)-7-(piperidin-4-ylmethyl)imidazo[2,1-f][1,2,4]triazin-4-amine]	EC50 [1, 3]: > 10000 nM; EC50 [1, 4]: > 10000 nM
1.08	CCCC(C)Oc1nc(N)c2ncc(CN3CCN[C@H](C)C3)n2n1 (stereo partly drawn) [Compound B15, 7—(((R)-3-methylpiperazin-1-yl)methyl)-2-(pent-2-yloxy)imidazo[2,1-f][1,2,4]triazin-4-amine]	–
> 10	CCCC(C)Oc1nc(N)c2ncc(CC3CCCCC3)n2n1 (stereo not shown) [Compound B29, 7-(cyclohexylmethyl)-2-(pent-2-yloxy)imidazo[2,1-f][1,2,4]triazin-4-amine]	–
0.021	CCC[C@H](C)Oc1nc(N)c2ncc(CC3CCN(CC(C)NC)CC3)n2n1 (single isomer, unassigned) [Compound B59, 7-((1-((S or R)-2-(methylamino)propyl)piperidin-4-yl)methyl)-2-(((S)-pent-2-yl)oxy)imidazo[2,1-f][1,2,4]triazin-4-amine]	–
2.72	CCCC(C)Oc1nc(N)c2ncc(CN3CCNC[C@H]3C)n2n1 (stereo partly drawn) [Compound B18, 7—(((R)-2-methylpiperazin-1-yl)methyl)-2-(pent-2-yloxy)imidazo[2,1-f][1,2,4]triazin-4-amine]	–
> 10	CCCC(C)Oc1nc(N)c2ncc(CN3CCC(NC)CC3)n2n1 (stereo not shown) [Compound B21, 7-((4-(methylamino)piperidin-1-yl)methyl)-2-(pent-2-yloxy)imidazo[2,1-f][1,2,4]triazin-4-amine]	–
1.79	CCCCCc1nc(N)c2ncc(CC3CCNCC3)n2n1 [Compound B11, 2-pentyl-7-(piperidin-4-ylmethyl)imidazo[2,1-f][1,2,4]triazin-4-amine]	–
0.387	CCC[C@H](C)Oc1nc(N)c2ncc(CC3CCN(C4CCNC4)CC3)n2n1 (stereo partly drawn) [Compound B13, 2—(((S)-pent-2-yl)oxy)-7-((1-(pyrrolidin-3-yl)piperidin-4-yl)methyl)imidazo[2,1-f][1,2,4]triazin-4-amine]	–
> 10	Nc1nc(OCC2CCOC2)nn2c(CC3CCNCC3)cnc12 (stereo not shown) [Compound B46, 7-(piperidin-4-ylmethyl)-2-((tetrahydrofuran-3-yl)methoxy)imidazo[2,1-f][1,2,4]triazin-4-amine]	–
> 10	CCCC(C)Oc1nc(N)c2ncc(C3(O)CC4(CCNCC4)C3)n2n1 (stereo not shown) [Compound B24, 2-(4-amino-2-(pent-2-yloxy)imidazo[2,1-f][1,2,4]triazin-7-yl)-7-azaspiro[3.5]nona-2-ol]	–
0.172	CCC[C@H](C)Oc1nc(N)c2ncc(CC3CCCNC3)n2n1 (stereo partly drawn) [Compound B10, 2—(((S)-pent-2-yl)oxy)-7-(piperidin-3-ylmethyl)imidazo[2,1-f][1,2,4]triazin-4-amine]	–
0.308	CCCC(CCO)Oc1nc(N)c2ncc(CC3CCNCC3)n2n1 (stereo not shown) [Compound B28, 3-((4-amino-7-(piperidin-4-ylmethyl)imidazo[2,1-f][1,2,4]triazin-2-yl)oxy)hexan-1-ol]	–
0.127	CCC[C@H](C)Oc1nc(N)c2ncc(CC3CNC3)n2n1 [Compound B39, (S)-7-(azetidin-3-ylmethyl)-2-(pent-2-yloxy)imidazo[2,1-f][1,2,4]triazin-4-amine]	–
0.036	CCC[C@H](C)Oc1nc(N)c2ncc(CC3CCCN3)n2n1 (stereo partly drawn) [Compound B42, 2-(((S)-pent-2-yl)oxy)-7-(pyrrolidin-2-ylmethyl)imidazo[2,1-f][1,2,4]triazin-4-amine]	–
3.86	CCC[C@H](C)Oc1nc(N)c2ncc(CC3CCNCC3(C)C)n2n1 (stereo partly drawn) [Compound B53, 7-((3,3-dimethylpiperidin-4-yl)methyl)-2-(((S)-pent-2-yl)oxy)imidazol[2,1-f][1,2,4]triazin-4-amine]	–
0.766	CCC[C@H](C)Oc1nc(N)c2ncc(C[C@H]3[C@@H]4CNC[C@@H]43)n2n1 [Compound B33, 7-(((1R,5S,6s)-3-azabicyclo[3.1.0]hex-6-yl)methyl)-2-(((S)-pent-2-yl)oxy)imidazo[2,1-f][1,2,4]triazin-4-amine]	–
1.01	CCC[C@H](C)Oc1nc(N)c2ncc(CC34CC(N)(C3)C4)n2n1 [Compound B40, (S)-7-((3-aminobicyclo[1.1.1]pent-1-yl)methyl)-2-(pent-2-yloxy)imidazo[2,1-f][1,2,4]triazin-4-amine]	–
0.103	CCC[C@H](C)Oc1nc(N)c2ncc(CC3CCC(NC)CC3)n2n1 (stereo partly drawn) [Compound B31, (S)-7-((4-(methylamino)cyclohexyl)methyl)-2-(pent-2-yloxy)imidazo[2,1-f][1,2,4]triazin-4-amine]	–
0.225	CCCC(CO)Oc1nc(N)c2ncc(CC3CCNCC3)n2n1 (stereo not shown) [Compound B34, 2-((4-amino-7-(piperidin-4-ylmethyl)imidazo[2,1-f][1,2,4]triazin-2-yl)oxy) pentan-1-ol]	–
–	CCC[C@H](C)Oc1nc(N)c2ncc(/C=C3/CCNCC3(C)C)n2n1 [Compound B52, (S)-7-((3,3-dimethylpiperidin-4-ylidene)methyl)-2-(pent-2-yloxy)imidazo[2,1-f][1,2,4]triazin-4-amine]	EC50 ([2]; unit μM, read-out: EC50): > 10 µM
0.0147	CCC(CC)Oc1nc(N)c2ncc(CC3CCNCC3)n2n1 [Compound B48, 2-(pent-3-yloxy)-7-(piperidin-4-ylmethyl)imidazo[2,1-f][1,2,4]triazin-4-amine]	–
0.917	CCC[C@H](C)Oc1nc(N)c2ncc(CC3CCNCC3C)n2n1 (stereo partly drawn) [Compound B60, 7-((3-methylpiperidin-4-yl)methyl)-2-(((S)-pent-2-yl)oxy)imidazo[2,1-f][1,2,4]triazin-4-amine]	–

Compound	EC50 [2, 5] [µM]	also measured
CCCCOc1nc(N)c2ncc(CC3CCNCC3)n2n1 [Compound B1, 2-butoxy-7-(piperidin-4-ylmethyl)imidazo[2,1-f][1,2,4]triazin-4-amine]	0.051	–
